± gives the expanded uncertainty stated by the source.
What was measured:
[1] = excess molar enthalpy (molar enthalpy of mixing); xn = mol fraction of the nth substance listed; conditions: 505 K, 101 kPa, Liquid, Calvet calorimetry
[2] = Solid-liquid equilibrium temperature; conditions: 101.3 kPa, Conductivity measurements

Work on O=S(=O)([O-])O.[Na+] [sulfuric acid, monosodium salt] + O=S(=O)([O-])O.[K+] yielded an excess molar enthalpy ([1]; x2 = 0.1135) of -0.18 ± 0.018 kJ/mol, an excess molar enthalpy ([1]; x2 = 0.2137) of -0.42 ± 0.042 kJ/mol and an excess molar enthalpy ([1]; x2 = 0.4029) of -0.527 ± 0.053 kJ/mol. It also gave an excess molar enthalpy ([1]; x2 = 0.4978) of -0.605 ± 0.061 kJ/mol, an excess molar enthalpy ([1]; x2 = 0.5883) of -0.599 ± 0.06 kJ/mol and an excess molar enthalpy ([1]; x2 = 0.7186) of -0.514 ± 0.052 kJ/mol. The excess molar enthalpy ([1]; x2 = 0.8521) was -0.289 ± 0.029 kJ/mol.

Work on O=S(=O)([O-])O.[K+] [hydrogen potassium sulfate] yielded a Solid-liquid equilibrium temperature ([2]; Crystal 1) of 488 ± 1 K.

Compound O=S(=O)([O-])O.[Na+] [sulfuric acid, monosodium salt] has a Solid-liquid equilibrium temperature ([2]; Crystal) of 458 ± 1 K.

Reference: the NIST ThermoML archive (doi:10.1016/j.tca.2005.11.022)
